Measured values published in patent US9505754B2, “Compound useful for the treatment of degenerative and inflammatory diseases” (GALAPAGOS NV, priority 2009, dated 2016).

What was measured:
[1] = system: collagen induced arthritis; experiment: Rat CIA (collagen induced arthritis) model; format: in vivo
Protocol: Completed Freund's adjuvant (CFA) and incomplete Freund's adjuvant (IFA) were purchased from Difco. Bovine collagen type […] (CII), lipopolysaccharide (LPS), and Enbrel were obtained from Chondrex (Isle d'Abeau, France); Sigma (P4252, L'Isle d'Abeau, France), Whyett (25 mg injectable syringe, France) Acros Organics (Palo Alto, Calif.), respectively. All other reagents used were of reagent grade and all solvents were of analytical grade.
Dark Agouti rats (male, 7-8 weeks old) are obtained from Harlan Laboratories (Maison-Alfort, France). DBA/1J mice (male, 7 weeks old) were obtained from Centre d'Elevage et de Reproduction JANVIER (CERJ) (Laval, France). Rats and mice were kept on a 12 hours light/dark cycle (0700-1900). The temperature was maintained at 22° C., and food and water were provided ad libitum.
One day before the experiment, CII solution (2 mg/mL) was prepared with 0.05 M acetic acid and stored at 4° C. Just before the immunization, equal volumes of adjuvant (IFA) and CII were mixed by a homogenizer in a pre-cooled glass bottle in an ice water bath. Extra adjuvant and prolonged homogenization might be required if an emulsion is not formed.
Rat: 0.2 mL of the emulsion is injected intradermally at the base of the tail of each rat on day 1, a second booster intradermal injection (CII solution at 2 mg/mL in CFA 0.1 mL saline) is performed on day 9. This immunization method is modified from published methods (Sims N A et al., (2004) Targeting osteoclasts with zoledronic acid prevents bone destruction in collagen-induced arthritis, Arthritis Rheum. 50 2338-2346; Jou et al., 2005).
The therapeutic effects of the test compounds were tested in the rat or mouse CIA model. Animals were randomly divided into equal groups and each group contained 10 animals. All rats are immunized on day 1 and boosted on day 9. All mice were immunized on day 1 and boosted on day 21. Therapeutic dosing lasted from day 16 to day 30. The negative control group was treated with vehicle (MC 0.5%) and the positive control group with Enbrel (10 mg/kg, 3× week., s.c.). A compound of interest was typically tested at 3 doses, e.g. 3, 10, 30 mg/kg, p.o.
Arthritis was scored according the method of Khachigian 2006, Lin et al 2007 and Nishida et al. 2004). […]
The area under the curve (AUC) from day 1 to day 14 was calculated for each individual rat. The AUC of each animal was divided by the average AUC obtained for the vehicle in the study from which the data on that animal was obtained and multiplied by 100 (i.e. the AUC was expressed as a percentage of the average vehicle AUC per study).
The clinical score difference for each animal was divided by the average clinical score difference obtained for the vehicle in the study from which the data on that animal was obtained and multiplied by 100 (i.e. the difference was expressed as a percentage of the average clinical score difference for the vehicle per study).
Post-mortem, a Larsen’ score was derived for both hind paws of all rats by at least 2 scientists. The average of these scores was calculated to obtain one Larsen’ score per rat. […]

[2] = Microsomal stability, human; format: in vitro ADME; settings: human liver microsomes, 3 μM compound, 1 hour, 37° C.
Protocol: (§1) A 10 mM stock solution of compound in DMSO was diluted 1000 fold in a 182 mM phosphate buffer pH7.4 in a 96 deep well plate (Greiner, Cat no. 780285) and pre-incubated at 37° C.
(§2) 40 μL of deionised water was added to a well of a polypropylene Matrix 2D barcode labelled storage tube (Thermo Scientific) and pre-incubated at 37° C.
(§3) A Glucose-6-phophate-dehydrogenase (G6PDH) working stock solution was prepared in 182 mM phosphate buffer pH7.4 and placed on ice before use. A co-factor containing MgCl2, glucose-6-phosphate and NADP+ was prepared in deionised water and placed on ice before use. […]
(§4) These plates were sealed with sealing mats (MA96RD-04S) of www.kinesis.co.uk and samples were measured at room temperature on LCMS (ZQ 1525 from Waters) under optimized conditions using Quanoptimize to determine the appropriate mass of the parent molecule.
(§5) The samples were analyzed on LCMS with a flow rate of 1 mL/min. […]
(§6) Peak area from the parent compound at time 0 was considered to be 100% remaining. The percentage remaining after 1 hour incubation was calculated from time 0 and was calculated as the percentage remaining. […]
(§7) The data on microsomal stability are expressed as a percentage of the total amount of compound remaining after 60 minutes.

[3] = Microsomal stability, rat; format: in vitro ADME; settings: rat liver microsomes, 3 μM compound, 1 hour, 37° C.
Protocol: as §1, §2, §3, §4, §5, §6, §7

CC1(C)CN(C(=O)c2ccc(-c3cccc4nc(NC(=O)C5CC5)nn34)cc2)C1 [Compound 1, Cyclopropanecarboxylic acid {5-[4-(3,3-dimethyl-azetidine-1-carbonyl)-phenyl]-[1,2,4]triazolo[1,5-a]pyridin-2-yl}-amide]
endpoint clinical score ([1]; rat CIA, from 1 mg/kg): significant improvements
paw swelling ([1]; rat CIA, from 1 mg/kg): significant improvements
AUC of the clinical score ([1]; rat CIA, from 10 mg/kg): significant improvements
Larsen' score ([1]; rat CIA, from 30 mg/kg): significant improvements
efficacy in rat CIA study readouts ([1]; rat, 30, 10, 3 and 1 mg/kg): efficacious in all readouts
Microsomal stability, Human (percentage of compound remaining after 60 minutes) [2]: 76-100%
Microsomal stability, Rat (percentage of compound remaining after 60 minutes) [3]: 76-100%
